From US7932239B2, “Methods of and compositions for reducing neuronal cell death” (Wisconsin Alumni Research Foundation, priority 2005, dated 2011)

What was measured:
[1] = system: retinal ganglion cells (RGCs); experiment: Viability of acutely axotomized retinal ganglion cells in culture (DAPI retrograde labeling, calcein-AM staining) at 72 hours; type: cell-based, rat; settings: for rescue of RGCs (in words): at 100 μM
Method: DAPI binds to nuclear DNA and fluoresces under UV light. At postnatal days eleven to thirteen, the animals were sacrificed by decapitation, the eyes enucleated, and the retinas dissected in Hank's balanced salt solution (HBSS). After two incubations in enzyme solution containing papain (3.7 U/ml), each for 30 minutes at 37° C., the retinas were gently triturated with a Pasteur pipette and plated on poly-L-lysine-coated 96-well flat-bottomed tissue culture plates (0.32 cm^2 surface area/well) at a density of approximately 2000 cells/mm^2. The cells were cultured for 72 hours in Neurobasal-A, B27 supplement lacking antioxidants in a humidified 5% CO2 incubator at 37° C.
Retinal Ganglion Cell Identification and Counting: RGCs were identified by the presence of DAPI, which appears blue when viewed with appropriate filters under epifluorescence. Cell viability was determined by metabolism of calcein-AM, which produces a green fluorescence when viewed with fluorescein filters. Cells were incubated in a 1 μM solution of calcein-AM in phosphate-buffered saline (PBS) for 30 minutes, after which the medium was replaced with fresh PBS. Wells were counted in duplicate or in triplicate.
Statistical Analysis: All RGC viability calculations were normalized to the control (no treatment) condition by dividing the mean number of living RGCs in an experimental condition by the mean in controls. Comparisons were by unpaired t-test.

[2] = system: retinal ganglion cells (RGCs); settings: previous studies, cited from earlier work
RGCs [3] = settings: after one to twelve weeks; written in present tense
From the text: Unilateral experimental glaucoma is induced in the rat using the Quigley protocol for laser ablation of the trabecular meshwork and of the circumferential episcleral vessels. […] The animals are anesthetized as in Example 2. A diode laser at 532 nm (0.2-0.4 watts and 0.3-0.7 second duration, depending on degree of pigmentation) is used to administer laser treatment at the trabecular meshwork and at the episcleral veins draining the perilimbal vessel plexus of vessel. In case a milder IOP rise is required, animals can be treated only at the trabecular meshwork. The laser treatment is repeated at 1 week if the IOP difference between the treated eye and the untreated eye is less than 6 mm Hg. Following laser treatment, sterile drug (i.e. PB1 or PB2) or control (BSS) is administered.
IOP is measured by putting a drop of 0.5% proparacaine in the eye, gently cradling the rat and touching the anesthetized eye with a Tonopen tonometer tip for a fraction of a second, usually for 3±2 times, more if the standard deviation is high. […] Depending on the experiment, the IOP is initially measured daily and then weekly.
After one to twelve weeks animals are sacrificed and RGC counts are performed as described in Example 2.

RGCs [4] = experiment: RGC death after optic nerve crush in vivo, intravitreal injection, RGC density in retinal whole mounts; parameters: species or system rat; settings: 7 to 14 days after optic nerve crush, written in present tense
Method: Optic Nerve Crush Surgery and Intravitreal Injections: Surgeries are conducted on adult (i.e. eight to twelve week old) rats that have previously received 1,1′-dioctadecyl-3,3,3′,3′-tetramethylindocarbocyanine (DiI) injections. All surgeries are done aseptically and are performed on the left eye only. Animals are anesthetized with a mixture of ketamine and xylazine. A limited lateral canthotomy is performed. The conjunctiva is then incised at the limbus and the subtenons space bluntly dissected posteriorly. […] The muscle cone is then entered and the optic nerve exposed. A longitudinal incision is made along the meningeal sheath to expose the optic nerve axons and to avoid disturbing the retinal blood supply. The axons of the optic nerve are then crushed with blunt forceps for 5 seconds 2 mm posterior to the globe under direct visualization. […]
RGC Density Determination: Retinal wholemounts are imaged with an Axiocarn HRc digital camera attached to a Zeiss Axiophot fluorescent microscope. […] The density of RGCs/mm^2 is determined by counting labeled DiI cells in three areas per retinal quadrant at three different eccentricities of the retinal radius for a total of twelve regions per retina. Cells positive for both DiI and BSL-I, as determined by bright yellow labeling when DiI (red) and BSL-I (green) images are merged, are subtracted from the total DiI count. […]

RGCs [5] = settings: injected intravitreally into adult rats, previous studies; cited from earlier work
[6] = at 1 μM and 100 μM, 72 hours, p<0.05

## O=C(O)c1ccccc1P(c1ccccc1)c1ccccc1 [2DPBA, 2-(diphenylphosphino)benzoic acid]
[1]; 10 nM, 72 hours
  relative RGC survival (compared to control): 216±18%
[1]; [6]
  neuroprotection of RGCs (in words): significant protection
[1]; dose response, 72 hours
  concentration at which neuroprotective for RGCs (lowest): 10 nM

## O[C@H](CS)[C@H](O)CS (racemic) [DTT, dithiothreitol]
[2]
  effectiveness at nanomolar concentrations (in words): not effective

## [BH3-][P+](CCC(=O)OC)(c1ccccc1)c1ccccc1 [PB2, (3-propionic acid methyl ester)diphenylphosphine borane complex]
[1]; 10 pM, 72 hours after axotomy
  relative RGC survival (compared to control): 180±10%
[1]; dose response 1 pM to 100 μM, 72 hours
  concentration at which neuroprotective for RGCs (lowest): ≥ 0.01 nM
RGCs [3]
  RGC cell death compared to controls (in words): attenuated
RGCs [4]
  RGC density compared to controls (in words): greater RGC density

## [BH3-][P+](CCC(=O)OC)(CCC(=O)OC)c1ccccc1 [PB1, bis(3-propionic acid methyl ester)phenylphosphine borane complex]
[1]; 1 nM, 72 hours after axotomy
  relative RGC survival (compared to control): 174±12%
[1]; at picomolar concentrations, 72 hours
  neuroprotection of RGCs (in words): highly effective
[1]; dose response, 72 hours
  concentration at which neuroprotective for RGCs (lowest): ≥ 1 nM
RGCs [3]
  RGC cell death compared to controls (in words): attenuated
RGCs [4]
  RGC density compared to controls (in words): greater RGC density

## O=C(O)CCP(CCC(=O)O)CCC(=O)O [TCEP, tris-(2-carboxyethyl) phosphine]
[1]; 72 hours
  rescue of RGCs (in words): mildly rescued RGCs
RGCs [5]
  RGC death after optic nerve crush (in words): inhibited RGC death
[2]
  effectiveness at nanomolar concentrations (in words): not effective
  concentration required for RGC neuroprotection: ~100 µM

## O=C(O)c1ccc(P(c2ccccc2)c2ccccc2)cc1 [4DPBA, 4-(diphenylphosphino)benzoic acid]
[1]; 1 μM, 72 hours
  relative RGC survival (compared to control): 183±19%
[1]; [6]
  neuroprotection of RGCs (in words): neuroprotection

## O=S(=O)([O-])c1cccc(P(c2cccc(S(=O)(=O)[O-])c2)c2cccc(S(=O)(=O)[O-])c2)c1.[Na+].[Na+].[Na+] [3BSA, 3,3′,3″-phosphinidynetris(benzene-sulfonic acid) trisodium salt]
[1]; 100 μM, 72 hours
  relative RGC survival (compared to control): 206±6%
[1]; 72 hours
  rescue of RGCs (in words): rescue RGCs
